Results: US8168651B2, “Protein kinase modulators” (Cylene Pharmaceuticals, Inc., priority 2008, dated 2012)

How the values were obtained:
PARP-HSA enzyme = PARP-HSA enzyme (Homo sapiens (Human), UniProt P09874); test: PARP assay (chemiluminescent PARP assay kit, Trevigen); format: biochemical; details: for IC50: read-out: PARP Inhibition IC50
Method: Modulatory activity of compounds described herein was assessed in vitro in cell-free CK2 assays. Modulatory activity of compounds described herein also are assessed in vitro in cell-free PARP assays. These assays are described hereafter.
PARP assays are conducted using a chemiluminescent PARP assay kit (Trevigen). Briefly, reactions are performed in Histone-coated strip wells, by adding 10 microliters test compound dissolved in 1×PARP Buffer (prepared by mixing 20×PARP buffer diluted with high-purity water) and 15 microliters diluted PARP-HSA enzyme (diluted in 1×PARP buffer, 0.1 unit per well) to 25 microliters PARP cocktail (prepared from 10×PARP cocktail and 10× activated DNA, both 2.5 microliters per well and 20 microliters per well of 1×PARP buffer). The reactions are incubated at ambient temperature for 60 minutes, then the liquid was removed. After washing the wells four times with PBS (200 ul), 50 microliters of STREP-HRP (Horseradish Peroxidase) solution (diluted 500-fold in 1× Strep-Diluent) was added and the reactions were allowed to incubate for 30 minutes at ambient temperature. The liquid was removed and, after washing the wells four times with PBS (200 ul), 50 microliters each of PeroxyGlo A and B (Chemiluminescent Horseradish Peroxidase substrates) are added and the resulting chemiluminescence quantified on the SpectraMax M5 plate reader.

recombinant human CK2 = recombinant human CK2 (Homo sapiens (Human), UniProt P68400); test: CK2 assay (cell-free, 33P-ATP filter plate); format: biochemical; details: for inhibition at 5 µM: read-out: CK2 Inhibition; for inhibition at 10 µM: read-out: CK2 % inhib @ 10 uM
recombinant human CK2, sequence (P68400 whole entry): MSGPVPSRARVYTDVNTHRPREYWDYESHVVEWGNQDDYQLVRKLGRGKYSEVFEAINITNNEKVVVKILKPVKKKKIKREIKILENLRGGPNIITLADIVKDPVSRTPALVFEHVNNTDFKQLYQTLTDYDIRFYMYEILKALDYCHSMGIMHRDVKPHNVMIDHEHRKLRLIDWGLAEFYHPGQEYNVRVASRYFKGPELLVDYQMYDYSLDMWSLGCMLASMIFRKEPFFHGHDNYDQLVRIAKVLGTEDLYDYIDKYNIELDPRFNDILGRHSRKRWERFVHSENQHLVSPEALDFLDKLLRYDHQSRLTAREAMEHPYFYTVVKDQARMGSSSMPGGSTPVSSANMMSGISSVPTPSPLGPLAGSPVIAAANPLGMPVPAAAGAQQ
recombinant human CK2, sequence (P67870 whole entry partner): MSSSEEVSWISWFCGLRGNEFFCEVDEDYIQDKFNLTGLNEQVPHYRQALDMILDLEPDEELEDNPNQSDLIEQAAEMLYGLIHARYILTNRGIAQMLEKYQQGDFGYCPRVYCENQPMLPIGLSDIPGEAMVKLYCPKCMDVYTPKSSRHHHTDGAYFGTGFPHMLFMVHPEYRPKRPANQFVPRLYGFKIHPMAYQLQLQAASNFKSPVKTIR

[1] = tested on: HCT-116 human colorectal carcinoma cells; test: Cell-proliferation assay using Alamar Blue dye; format: cell-based; details: Homo sapiens, HCT-116, second HCT-116 column (c8); read-out: HCT-116 (uM) cell proliferation modulatory activity;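 further: cells exposed to compound for about 4 days, then Alamar Blue added and dye fluorescence read after about 4 h, compared with medium-only control wells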
recombinant human PIM1 = recombinant human PIM1 (Homo sapiens (Human), UniProt P11309); test: PIM-1 kinase activity in cell-free in vitro assay; format: biochemical
recombinant human PIM1, sequence (P11309 whole entry): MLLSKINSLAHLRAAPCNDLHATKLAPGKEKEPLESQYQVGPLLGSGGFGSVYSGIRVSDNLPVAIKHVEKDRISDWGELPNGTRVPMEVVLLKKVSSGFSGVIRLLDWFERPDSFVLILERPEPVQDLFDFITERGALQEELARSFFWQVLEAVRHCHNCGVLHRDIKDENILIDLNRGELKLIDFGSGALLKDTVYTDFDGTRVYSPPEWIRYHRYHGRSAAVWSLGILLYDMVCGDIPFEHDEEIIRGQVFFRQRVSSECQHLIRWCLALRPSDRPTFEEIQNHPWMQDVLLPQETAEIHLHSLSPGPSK

Jurkat = test: Cell proliferation modulatory activity, Jurkat; format: cell-based; details: Homo sapiens; Jurkat cells
MV-411 = MV-411 IC50 (Table 46); format: cell-based; details: Homo sapiens, MV4-11
K-562 = K-562 IC50 (Table 46); format: cell-based; details: Homo sapiens, K562
[2] = tested on: PC-3 human prostatic cancer cells; test: Cell-proliferation assay using Alamar Blue dye; format: cell-based; details: read-out: PC3 IC50
Procedure, shortened: (§1)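 Fluorescence (excitation 544 nm, emission 590 nm) is measured four hours after Alamar Blue addition to cells cultured with test compound for four days at 37° C. Wells are seeded with 4,000-5,000 cells.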

MDA MB231 = MDA MB231 IC50 (Table 46); format: cell-based; details: Homo sapiens, MDA-MB-231
[3] = tested on: MiaPaca human pancreatic carcinoma cells; test: Cell-proliferation assay using Alamar Blue dye; format: cell-based; details: MIA PaCa-2
Procedure, shortened: as §1

phospho-BAD ser112 = phospho-BAD ser112 IC50 (Table 46); format: cell-based
FLT3 autophos = FLT3 autophos (Homo sapiens (Human), UniProt P36888); test: FLT3 autophos IC50 (Table 46); format: cell-based
FLT3 autophos, sequence (P36888 27-993): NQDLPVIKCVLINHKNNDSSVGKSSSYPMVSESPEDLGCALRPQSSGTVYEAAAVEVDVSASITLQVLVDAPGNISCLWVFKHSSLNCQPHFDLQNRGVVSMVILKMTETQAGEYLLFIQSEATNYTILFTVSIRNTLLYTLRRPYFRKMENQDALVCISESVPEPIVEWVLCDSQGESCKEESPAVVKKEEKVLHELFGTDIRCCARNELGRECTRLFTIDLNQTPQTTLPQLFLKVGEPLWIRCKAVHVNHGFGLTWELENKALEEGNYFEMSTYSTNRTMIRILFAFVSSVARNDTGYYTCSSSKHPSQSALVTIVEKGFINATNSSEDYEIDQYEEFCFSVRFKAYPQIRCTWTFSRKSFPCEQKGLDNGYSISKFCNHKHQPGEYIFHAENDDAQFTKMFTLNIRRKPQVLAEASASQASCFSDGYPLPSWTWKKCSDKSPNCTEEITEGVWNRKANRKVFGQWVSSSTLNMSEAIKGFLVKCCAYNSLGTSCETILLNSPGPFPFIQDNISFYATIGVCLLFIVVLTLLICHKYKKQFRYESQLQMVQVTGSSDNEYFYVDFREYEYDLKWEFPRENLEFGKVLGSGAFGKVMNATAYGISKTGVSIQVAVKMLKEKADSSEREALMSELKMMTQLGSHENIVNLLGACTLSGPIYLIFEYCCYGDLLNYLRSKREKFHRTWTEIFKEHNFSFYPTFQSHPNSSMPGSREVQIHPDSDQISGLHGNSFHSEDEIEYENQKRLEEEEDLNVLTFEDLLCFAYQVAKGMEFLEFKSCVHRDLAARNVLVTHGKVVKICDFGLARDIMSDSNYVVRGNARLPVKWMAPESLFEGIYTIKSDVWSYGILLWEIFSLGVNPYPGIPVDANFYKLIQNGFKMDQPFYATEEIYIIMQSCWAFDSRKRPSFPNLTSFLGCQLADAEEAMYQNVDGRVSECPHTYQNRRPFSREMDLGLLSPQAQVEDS

MiaPaca xenografts = test: Tumor suppression in MiaPaca xenograft mice; format: in vivo, NCr nu/nu mice; details: IV administration
Method: Animals were handled under laminar-flow hoods.
Tumor volume measurements (FIG. 3A) and body weight (FIG. 3B) were recorded on days 3, 6, 8, 10, 13 and 15.
Gemzar™ administered at a dose of 80 mg/kg IP Q3D was used as a positive control.

A549 = test: Cell-proliferation assay using Alamar Blue dye; format: cell-based; details: Homo sapiens
Method: (§2) A representative cell-proliferation assay protocol using Alamar Blue dye (stored at 4° C., use 20 ul per well) is described hereafter.
(§3) 96-Well Plate Setup and Compound Treatment
(§4) • a. Split and trypsinize cells. • b. Count cells using hemocytometer. • c. Plate 4,000-5,000 cells per well in 100 μl of medium and seed into a 96-well plate according to the following plate layout. Add cell culture medium only to wells B10 to B12. Wells B1 to B9 have cells but no compound added.
(§5) • d. Add 100 μl of 2× drug dilution to each well in a concentration shown in the plate layout above. At the same time, add 100 μl of media into the control wells (wells B10 to B12). Total volume is 200 μl/well. • e. Incubate four (4) days at 37° C., 5% CO2 in a humidified incubator. • f. Add 20 μl Alamar Blue reagent to each well. • g. Incubate for four (4) hours at 37° C., 5% CO2 in a humidified incubator. • h. Record fluorescence at an excitation wavelength of 544 nm and emission wavelength of 590 nm using a microplate reader.
(§6) In the assays, cells are cultured with a test compound for approximately four days, the dye then is added to the cells and fluorescence of […] dye is detected after approximately four hours. Different types of cells can be utilized in the assays (e.g., HCT-116 human colorectal carcinoma cells, PC-3 human prostatic cancer cells and MiaPaca human pancreatic carcinoma cells). Anti-proliferative effects of representative compounds are provided hereafter

LNCaP = test: Cell-proliferation assay using Alamar Blue dye; format: cell-based; details: Homo sapiens
Method: as §2, §3, §4, §5, §6

MCF-7 = test: Cell-proliferation assay using Alamar Blue dye; format: cell-based; details: Homo sapiens, MCF7
Method: as §2, §3, §4, §5, §6

MDAMB231 = test: Cell-proliferation assay using Alamar Blue dye; format: cell-based; details: Homo sapiens, MDA-MB-231
Method: as §2, §3, §4, §5, §6

[4] = Pharmacokinetics after IV and PO dose in ICR mice; format: in vivo; details: for half-life: mouse, plasma
Method: […] Blood samples were collected at predetermined times and the plasma separated. Plasma was separated from the blood samples collected at 5, 15 and 30 minutes and 1, 2, 4, 8 and 24 hours post-dose.
Drug levels were quantified by the LC/MS/MS method described below. Noncompartmental pharmacokinetic analysis was applied for intravenous administration. A linear trapezoidal rule was used to compute AUC(0-24). The terminal t1/2 and C0 were calculated using the last three and the first three data points, respectively
Bioanalysis was performed using a Quattro Micro LC/MS/MS instrument in the MRM detection mode, with an internal standard (IS). Briefly, 15 µL plasma samples were prepared for analysis using protein precipitation with 120 μL of acetonitrile. The supernatants were transferred into a 96 well plate and subjected to LC-MS/MS analysis using a Phenomenex Polar-RP HPLC column. The mobile phases were 10 mM NH4HCO3 in water (Solution-A) and 10 mM NH4HCO3 in methanol (Solution-B). […] Quantitation of the analytes was performed in the batch mode with two bracketing calibration curves according to the bioanalytical sample list.

PARP-HSA enzyme, sequence (P09874 whole entry): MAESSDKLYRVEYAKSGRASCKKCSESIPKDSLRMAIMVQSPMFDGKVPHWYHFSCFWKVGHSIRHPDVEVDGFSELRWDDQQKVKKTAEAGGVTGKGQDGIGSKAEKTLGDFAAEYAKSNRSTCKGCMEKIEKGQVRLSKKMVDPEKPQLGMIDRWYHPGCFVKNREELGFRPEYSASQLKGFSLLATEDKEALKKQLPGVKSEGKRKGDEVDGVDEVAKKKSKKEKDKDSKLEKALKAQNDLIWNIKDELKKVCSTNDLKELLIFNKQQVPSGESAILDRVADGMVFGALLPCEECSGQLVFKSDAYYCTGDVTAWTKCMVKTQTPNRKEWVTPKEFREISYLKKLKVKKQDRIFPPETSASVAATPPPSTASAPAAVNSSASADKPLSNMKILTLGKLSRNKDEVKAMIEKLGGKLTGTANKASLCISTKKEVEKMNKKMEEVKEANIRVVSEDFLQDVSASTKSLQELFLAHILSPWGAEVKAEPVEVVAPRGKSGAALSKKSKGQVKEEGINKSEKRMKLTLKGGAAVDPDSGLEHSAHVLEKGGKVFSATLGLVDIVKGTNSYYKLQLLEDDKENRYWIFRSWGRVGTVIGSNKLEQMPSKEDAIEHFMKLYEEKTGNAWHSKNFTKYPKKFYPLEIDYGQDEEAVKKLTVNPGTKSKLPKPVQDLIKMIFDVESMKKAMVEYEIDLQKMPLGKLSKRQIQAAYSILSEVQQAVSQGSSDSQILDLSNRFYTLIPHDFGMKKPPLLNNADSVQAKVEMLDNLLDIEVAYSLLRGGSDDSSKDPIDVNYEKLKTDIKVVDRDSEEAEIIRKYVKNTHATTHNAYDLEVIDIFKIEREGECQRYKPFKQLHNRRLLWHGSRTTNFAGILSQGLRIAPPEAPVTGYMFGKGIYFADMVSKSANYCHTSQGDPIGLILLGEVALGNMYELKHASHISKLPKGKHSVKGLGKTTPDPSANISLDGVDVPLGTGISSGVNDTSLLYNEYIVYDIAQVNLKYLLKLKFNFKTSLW

| Structure (SMILES) | IC50 (MV-411) [nM] | IC50 (K-562) [nM] | IC50 (recombinant human PIM1) [nM] | IC50 [2] [nM] | IC50 (MDA MB231) [nM] | IC50 [3] [nM] | IC50 (phospho-BAD ser112) [nM] | IC50 (FLT3 autophos) [nM] | also measured |
| --- | --- | --- | --- | --- | --- | --- | --- | --- | --- |
| O=C(O)c1ccc2c(c1)[nH]c(=O)c1ccccc12 | – | – | – | – | – | – | – | – | IC50 (PARP-HSA enzyme): 70 nM; inhibition at 5 µM (recombinant human CK2): 28% |
| O=C(O)c1ccc2c3ccccc3c(=O)n(CCCO)c2c1 | – | – | – | – | – | – | – | – | IC50 (PARP-HSA enzyme): 60 nM; inhibition at 5 µM (recombinant human CK2): 29% |
| COc1ccccc1NC(=O)c1ccc2c(c1)[nH]c(=O)c1ccsc12 | – | – | – | – | – | – | – | – | PARP % inhib @ 1 uM (PARP-HSA enzyme): 0%; inhibition at 10 µM (recombinant human CK2): -7% |
| O=C(O)c1ccc2c(c1)nc(Nc1ccc(OCc3ccccc3)cc1)c1ccncc12 | – | – | – | – | – | – | – | – | IC50 [1]: > 10 µM; inhibition at 0.5 µM (recombinant human PIM1; 500 nM compound, cell-free assay, read-out: PIM-1: % inh 500 nM): 44.3%; IC50 (Jurkat): 14.2 µM |
| NCc1ccc(Nc2nc3c(-c4nnc[nH]4)cccc3c3cnccc23)cc1 | < 100 | > 10000 | < 100 | > 30000 | 9640 | – | – | – | – |
| CN(C)CCOc1ccc(Nc2nc3c(-c4nnc[nH]4)cccc3c3cnccc23)c(F)c1 | < 100 | < 1000 | – | 12000 | 2180 | – | – | – | – |
| CN1CCN(c2ccc(Nc3nc4c(-c5nnc[nH]5)cccc4c4cnccc34)c(Cl)c2)CC1 | < 100 | < 1000 | – | 3660 | 2940 | 1500 | – | – | – |
| Fc1cc(OCCN2CCCC2)ccc1Nc1nc2c(-c3nnc[nH]3)cccc2c2cnccc12 | < 100 | < 500 | < 100 | – | < 1000 | – | < 100 | > 10000 | – |
| CN(C)CCOc1ccc(Nc2nc3c(-c4nnc[nH]4)cccc3c3cnccc23)cc1 | < 100 | < 100 | < 100 | 1760 | 2560 | – | < 100 | > 10000 | – |
| CN(C)CCOc1ccc(Nc2nc3c(-c4nnc[nH]4)cccc3c3cnccc23)c(Cl)c1 | < 100 | 6940 | < 100 | – | 1230 | – | < 100 | 5410 | – |
| Clc1cc(OCCN2CCOCC2)ccc1Nc1nc2c(-c3nnc[nH]3)cccc2c2cnccc12 | < 100 | > 10000 | < 100 | > 30000 | > 10000 | – | < 100 | 6010 | – |
| CS(=O)(=O)c1ccc(Nc2nc3c(-c4nnc[nH]4)cccc3c3cnccc23)c(Cl)c1 | < 100 | 2660 | < 100 | 1510 | 2730 | – | – | – | – |
| c1cc(-c2nnc[nH]2)c2nc(Nc3ccc(OCCN4CCOCC4)cc3)c3ccncc3c2c1 | < 100 | < 500 | < 100 | < 1000 | 2040 | 268 | < 500 | > 10000 | – |
| c1cc(-c2nnc[nH]2)c2nc(NC3CCC3)c3ccncc3c2c1 | < 100 | < 500 | < 100 | < 500 | > 10000 | 7620 | < 100 | > 10000 | – |
| COc1ccc(Nc2nc3c(-c4nnc[nH]4)cccc3c3cnccc23)c(F)c1 | < 100 | < 1000 | < 100 | < 500 | 6860 | < 500 | 510 | > 10000 | – |
| c1cc(-c2nnc[nH]2)c2nc(N3CCCC3)c3ccncc3c2c1 | < 1000 | 3230 | < 500 | > 30000 | > 10000 | < 100 | 2940 | > 10000 | – |
| c1cc(-c2nnc[nH]2)c2nc(NC3CCCC3)c3ccncc3c2c1 | < 500 | 1930 | < 100 | > 30000 | > 10000 | – | < 500 | > 10000 | – |
| CCOC(=O)c1ccc(Nc2nc3c(-c4nnc[nH]4)cccc3c3cnccc23)c(Cl)c1 | < 100 | > 10000 | < 100 | > 30000 | > 10000 | > 10000 | – | – | – |
| FC(F)(F)Oc1ccc(Nc2nc3c(-c4nnc[nH]4)cccc3c3cnccc23)c(Cl)c1 | < 100 | > 10000 | < 100 | > 30000 | > 10000 | > 10000 | 4170 | > 10000 | – |
| Oc1ccc(Nc2nc3c(-c4nnc[nH]4)cccc3c3cnccc23)c(Cl)c1 | > 10000 | < 500 | < 100 | < 500 | 2380 | < 1000 | – | – | – |
| O=C(O)c1ccc2c(c1)nc(Nc1cccc(C(F)(F)F)c1)c1nc(NC3CC3)ncc12 [Compound A3] | – | – | – | – | – | – | – | – | tumor progression (MiaPaca xenografts): significantly inhibited tumor progression |
| O=C(O)c1ccc2c(c1)nc(OCCCO)c1ccccc12 [drawing 559] | – | – | – | – | – | – | – | – | IC50 (PARP-HSA enzyme): 400 nM; inhibition at 5 µM (recombinant human CK2): 38% |
| COC(=O)c1ccc2c(c1)nc(Cl)c1ccsc12 [drawing 695] | – | – | – | – | – | – | – | – | PARP % inhib @ 1 uM (PARP-HSA enzyme): 18%; inhibition at 10 µM (recombinant human CK2): 18% |
| O=C(O)c1ccc2c(c1)nc(NCCc1ccccc1)c1ccncc12 [drawing 988] | – | – | – | – | – | – | – | – | IC50 (A549): 47 µM; IC50 (LNCaP): 8.6 µM; IC50 (MCF-7): 14.7 µM |
| O=C(O)c1ccc2c(c1)nc(NCCc1cccc(F)c1)c1ccncc12 [drawing 1002] | – | – | – | – | – | – | – | – | IC50 (A549): 47.2 µM; IC50 (MDAMB231): 5.83 µM; IC50 (LNCaP): 10.3 µM; IC50 (MCF-7): > 50 µM |
| C#Cc1cccc(Nc2nc3cc(C(=O)O)ccc3c3cncnc23)c1 [drawing 1129] | – | – | – | – | – | – | – | – | F(0-24 h) ([4]; PO 24.5 mg/kg): 26.5%; F(0-Inf) ([4]; PO 24.5 mg/kg): 31.1%; Kel ([4]; PO 24.5 mg/kg): 0.0594 h⁻¹; half-life ([4]; IV 3.4 mg/kg): 4.9 h; half-life ([4]; PO 24.5 mg/kg): 11.7 h |
| CNC(=O)c1cccc2c1nc(Nc1cccc(Cl)c1)c1ccncc12 [drawing 2307] | < 100 | > 10000 | < 100 | > 30000 | > 10000 | < 500 | – | – | – |
